Reference: patent US11897868B2, “Heterocyclic inhibitors of PCSK9” (CARDIO THERAPEUTICS PTY LTD, priority 2017, dated 2024)

Key:
[1] = target: T1, PCSK9 and the LDL receptor (Homo sapiens, UniProt Q8NBP7); assay: CircuLex PCSK9-LDLR in vitro binding assay; conditions: His-tagged PCSK9 wild type, 8 point concentration curves, absorbance 450 nm and 540 nm; for IC50: read-out: Inhibition of PCSK9-LDLR binding; for Inhibition of PCSK9-LDLR binding: IC50 curves
T1 construct: purchased CircuLex CY-8150
Method: Compounds were assayed for their ability to inhibit the binding between PCSK9 and the LDL receptor using a CircuLex PCSK9-LDLR in vitro binding assay kit (Catalog #CY-8150. The procedure employed the reagents and buffers included in the kit as follows.
88 μL of 1× reaction buffer were placed into each well. 5 μL of test compounds in 20% DMSO were added into each well. 10 mM solutions of test compounds in DMSO were diluted by 3-fold series to give 8 point concentration curves. The compounds were then diluted 20-fold with the reaction buffer. To each well was then added 7 μL of His-tagged PCSK9 wild type solution (1000 ng/mL) into each well. The plate was then covered with a plate sealer and incubated at room temperature for 3 hours, shaking at 300 rpm on an orbital microplate shaker. The test solutions were washed 4 times with 350 μL wash buffer. 100 μL of biotinylated anti-His-tag monoclonal antibody was added to each well. The plate was covered with a plate sealer, and incubated at room temperature for 1 hour, shaking at 300 rpm. The test solutions were washed 4 times with 350 μL wash buffer. 100 μL of HRP-conjugated streptavidin was added to each well. The plate was covered with a plate sealer, and incubated at room temperature for 20 min, shaking at 300 rpm.
The test solutions were washed 4 times with 350 μL wash buffer. 100 μL of substrate reagent were added into each well. The plate was covered with a plate sealer, and incubated at room temperature for 15 min, shaking at 300 rpm. Finally, 100 μL of the stop solution was added to each well in the same order as the previously added substrate reagent. Absorbance was measured at 450 nm and 540 nm and IC50 curves were plotted.

[2] = target: T2, PCSK9-D374Y (Homo sapiens, UniProt Q8NBP7, D374Y); assay: LDL uptake in HepG2 cells treated with PCSK9-D374Y (cell-based assay); conditions: HepG2 cells with PCSK9-D374Y (2 μg/ml), 16 hours, Bodipy FL LDL 4 hours, FIG. 3
T2 construct: host or cells: HepG2 cells (the protein is added from outside; LDLR is endogenous)
Method: Human liver cells (hepG2) express the LDL receptor, which can take up fluorescent-labeled LDL into the cell. PCSK9 binds to LDL receptor, wherein the complex is internalized and degraded in the lysosome, resulting in lowered LDL uptake in hepG2 cells. Inhibition of PCSK9 […] lowers plasma (circulating) LDL-C by increasing LDL incorporation into the cell.
The cell-based assay was conducted as follows, according to the procedure outlined in Xu and Liu, J Bioequiv Availab 2013, 5, 7. […] Human liver HepG2 cells were seeded in a 96 well plate at 2×10^5 cells/ml and incubated overnight. PCSK9-D374Y (2 μg/ml) was added, along with test compounds. The wells were incubated for 16 hours, whereupon the medium was replaced with fresh medium containing 10 μg/ml Bodipy FL LDL, and the wells were incubated for a further 4 hours. The wells were washed using warm PBS and then the LDL uptake was quantified on a fluorescent plate reader at excitation/emission wavelengths of 485 and 530 nm respectively.
FIG. 2 indicates the decrease in LDL update in HepG2 cells comparing untreated and PCSK9-D374Y gain-of-function treated cells. Test compounds were measured at their ability to increase LDL uptake at concentrations of 0.1 and 1 μM and the results shown in FIG. 3.

T1 sequence (Q8NBP7 153-692): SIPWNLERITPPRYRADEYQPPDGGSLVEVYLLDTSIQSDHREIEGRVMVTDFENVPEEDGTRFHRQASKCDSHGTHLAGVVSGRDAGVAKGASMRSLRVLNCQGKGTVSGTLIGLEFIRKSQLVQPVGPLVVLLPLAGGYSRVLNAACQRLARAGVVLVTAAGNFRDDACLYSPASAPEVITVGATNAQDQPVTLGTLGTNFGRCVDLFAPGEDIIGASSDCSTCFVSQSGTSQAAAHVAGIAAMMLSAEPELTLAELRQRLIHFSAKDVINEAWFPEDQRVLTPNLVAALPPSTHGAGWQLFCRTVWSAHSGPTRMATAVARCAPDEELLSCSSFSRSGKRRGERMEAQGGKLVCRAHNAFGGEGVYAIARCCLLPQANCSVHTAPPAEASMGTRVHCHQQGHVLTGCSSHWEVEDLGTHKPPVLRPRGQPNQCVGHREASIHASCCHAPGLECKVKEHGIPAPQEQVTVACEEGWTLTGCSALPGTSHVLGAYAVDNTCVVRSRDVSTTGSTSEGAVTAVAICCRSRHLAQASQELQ
T1 sequence (Q8NBP7 31-152 partner limits assumed): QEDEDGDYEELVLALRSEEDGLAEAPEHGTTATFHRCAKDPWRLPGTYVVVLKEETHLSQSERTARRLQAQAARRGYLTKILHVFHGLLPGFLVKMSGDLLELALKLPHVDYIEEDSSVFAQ
T2 sequence (Q8NBP7 153-692 D374Y): as the sequence (Q8NBP7 153-692) above, with D222Y counted along it
T2 sequence (Q8NBP7 31-152 partner limits assumed): as the sequence (Q8NBP7 31-152 partner limits assumed) above

Row | Structure (SMILES) | IC50 [1] [µM] | Inhibition of PCSK9-LDLR binding [1] | increase of LDL uptake ([2]; 0.1 μM compound) | increase of LDL uptake ([2]; 1 μM compound)
1 | Cc1cn(-c2cc(NC(=O)c3ccc(C)c(Oc4ccccc4)c3)cc(N3CCN(C)CC3)c2)cn1 [Example 25, 4-methyl-N-(3-(4-methyl-1H-imidazol-1-yl)-5-(4-methylpiperazin-1-yl)phenyl)-3-phenoxybenzamide] | – | * (Starred values refer to levels of inhibition of binding by less than 35% at the highest concentration tested, due either to solubility limitations or dynamic range limitations of the assay.) | – | –
2 | COCCN1CCN(c2cc(NC(=O)c3ccc(C)c(Oc4ccccc4)c3)cc(-n3cnc(C)c3)c2)CC1 [Example 26, N-(3-(4-(2-methoxyethyl)piperazin-1-yl)-5-(4-methyl-1H-imidazol-1-yl)phenyl)-4-methyl-3-phenoxybenzamide] | – | * (Starred values refer to levels of inhibition of binding by less than 35% at the highest concentration tested, due either to solubility limitations or dynamic range limitations of the assay.) | – | –
3 | Cc1cn(-c2cc(NC(=O)c3ccc(C)c(Oc4cccc5ccncc45)c3)cc(N3CCN(C)CC3)c2)cn1 [Example 27, 3-(isoquinolin-8-yloxy)-4-methyl-N-(3-(4-methyl-1H-imidazol-1-yl)-5-(4-methylpiperazin-1-yl)phenyl)benzamide] | < 0.1 | – | Significant increases in LDL uptake equivalent to untreated cells | Significant increases in LDL uptake equivalent to untreated cells
4 | Cc1cc(-c2cc(NC(=O)c3ccc(C)c(Nc4nccc(-c5ccc(F)cc5)n4)c3)cc(N3CCN(C)CC3)c2)on1 [Example 29, 3-((4-(4-fluorophenyl)pyrimidin-2-yl)amino)-4-methyl-N-(3-(3-methylisoxazol-5-yl)-5-(4-methylpiperazin-1-yl)phenyl)benzamide] | 10 to 100 | – | – | –

Second part, led by results:

Row | IC50 [1] [µM] | Structure (SMILES) | Inhibition of PCSK9-LDLR binding [1] | increase of LDL uptake ([2]; 0.1 μM compound) | increase of LDL uptake ([2]; 1 μM compound)
5 | 10 to 100 | Cc1cn(-c2cc(NC(=O)c3ccc(C)c(Nc4nccc(-c5ccc(F)cc5)n4)c3)cc(N3CCOCC3)c2)cn1 [Example 23, 3-((4-(4-fluorophenyl)pyrimidin-2-yl)amino)-4-methyl-N-(3-(4-methyl-1H-imidazol-1-yl)-5-morpholinophenyl)benzamide] | – | – | –
6 | 10 to 100 | Cc1ccc(C(=O)Nc2cc(N3CCN(C)CC3)cc(-n3cnc(C)c3)c2)cc1 [Example 24, 4-methyl-N-(3-(4-methyl-1H-imidazol-1-yl)-5-(4-methylpiperazin-1-yl)phenyl)benzamide] | – | – | –
7 | 1 to 10 | Cc1cn(-c2cc(NC(=O)c3ccc(C)c(C(=O)c4cccc(C#N)c4)c3)cc(N3CCN(C)CC3)c2)cn1 [Example 28, 3-(3-cyanobenzoyl)-4-methyl-N-(3-(4-methyl-1H-imidazol-1-yl)-5-(4-methylpiperazin-1-yl)phenyl)benzamide] | – | – | –
8 | 0.1 to 1 | Cc1cn(-c2cc(CN3CCC[C@H](N)C3)cc(NC(=O)c3ccc(C)c(Oc4ccccc4)c3)c2)cn1 [Example 30, (S)—N-(3-((3-aminopiperidin-1-yl)methyl)-5-(4-methyl-1H-imidazol-1-yl)phenyl)-4-methyl-3-phenoxybenzamide] | – | Significant increases in LDL uptake equivalent to untreated cells | Significant increases in LDL uptake equivalent to untreated cells
9 | 1 to 10 | Cc1ccc(C(=O)Nc2cccc(N3CCN(C)CC3)c2)cc1Nc1nccc(-c2ccc(F)cc2)n1 [Example 31, 3-((4-(4-fluorophenyl)pyrimidin-2-yl)amino)-4-methyl-N-(3-(4-methylpiperazin-1-yl)phenyl)benzamide] | – | – | –
